Results on 18 compounds are retold here after patent US8563714B2, “Bridged spiro [2.4] heptane derivatives as ALX receptor and/or FPRL2 agonists” (Actelion Pharmaceuticals Ltd., priority 2009, dated 2013).

In one test the target is T1, human ALX receptor (Homo sapiens, UniProt P25090).
T1 construct: expressed in transfected cells; host or cells: HEK293 (HEK293-hALXR-Gα16)
T1 sequence (P25090 1-351): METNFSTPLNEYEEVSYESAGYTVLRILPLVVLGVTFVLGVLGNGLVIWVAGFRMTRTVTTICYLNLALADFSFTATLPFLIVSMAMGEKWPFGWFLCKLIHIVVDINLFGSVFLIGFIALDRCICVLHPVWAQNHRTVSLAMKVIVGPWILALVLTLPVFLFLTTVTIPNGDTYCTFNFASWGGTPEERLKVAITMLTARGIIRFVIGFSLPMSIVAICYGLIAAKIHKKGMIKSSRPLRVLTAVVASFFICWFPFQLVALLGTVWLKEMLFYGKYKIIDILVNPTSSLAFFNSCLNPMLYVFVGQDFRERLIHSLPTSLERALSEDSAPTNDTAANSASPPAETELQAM
Kind of test: Intracellular calcium measurements (FLIPR), agonistic activity in HEK293-hALXR-Gα16 cells. Format: cell-based. Conditions: Fluo-4 calcium FLIPR, normalized to WKYMVm 10 nM. The gist of the method:
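HEK293 cells expressing hALXR and Gα16 were loaded with 1 μM Fluo-4 AM and 20 mM HEPES for 60 min at 37°C, then exposed to serially diluted compound. FLIPR fluorescence was read at ex 488/em 540 nm. Baseline-subtracted peak responses were normalized to 10 nM WKYMVm.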
Background: A change in cytosolic calcium serves as a functional read-out for many receptors and channels.

A further test has as its target T2, human FPRL2 (Homo sapiens, UniProt P25089).
T2 construct: expressed in transfected cells; host or cells: HEK293 (HEK293-hFPRL2-Gα16)
T2 sequence (P25089 1-353): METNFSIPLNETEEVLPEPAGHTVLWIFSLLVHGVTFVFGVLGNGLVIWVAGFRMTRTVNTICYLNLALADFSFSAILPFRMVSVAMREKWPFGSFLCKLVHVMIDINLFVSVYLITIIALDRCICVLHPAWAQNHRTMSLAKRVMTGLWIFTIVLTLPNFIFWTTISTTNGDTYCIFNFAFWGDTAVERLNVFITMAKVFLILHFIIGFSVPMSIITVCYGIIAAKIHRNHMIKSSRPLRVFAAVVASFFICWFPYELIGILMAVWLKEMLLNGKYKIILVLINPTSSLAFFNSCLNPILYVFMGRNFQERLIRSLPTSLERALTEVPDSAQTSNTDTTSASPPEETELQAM
Kind of test: Intracellular calcium measurements (FLIPR), agonistic activity in HEK293-hFPRL2-Gα16 cells. It counts as cell-based. Conditions: Fluo-4 calcium FLIPR, normalized to GLY14-Humanin 100 nM. In a few lines:
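Peak values after baseline subtraction are expressed relative to 100 nM Gly14-Humanin; compounds diluted in assay buffer from 10 mM DMSO stocks.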

pEC50: −log10 of the molar value.

For orientation: pEC50 means the negative decadic logarithm of the EC50, by convention in mol/L. For the compound `CC(=O)c1csc(CNC(=O)[C@H]2[C@H](C(=O)NCCCCN3CCCC3)[C@H]3C=C[C@@H]2C32CC2)n1` (racemic) [Example 191, (5R*)—N^5-(4-Acetyl-thiazol-2-yl-methyl)-(6R*)—N^6-(4-pyrrolidin-1-yl-butyl)-(4S*,7R*)-[4,7-ethenylene-spiro[2.4]heptane]-5,6-dicarboxamide], the pEC50 was 6.85 on human ALX receptor and 6.08 on human FPRL2.

Regarding `O=C(NCC1CCNCC1)[C@H]1[C@H](C(=O)NCc2ccc(Br)cc2)[C@@H]2C=C[C@H]1C21CC1` (racemic) [Example 311, (5R*)—N^5-(4-Bromophenyl-methyl)-(6R*)—N^6-(piperidin-4-yl-methyl)-(4S*,7R*)-[4,7-ethenylene-spiro[2.4]heptane]-5,6-dicarboxamide], the pEC50 at human ALX receptor is 7.27; at human FPRL2 it was 5.93.

For the compound `Cc1coc(NC(=O)[C@H]2[C@H](C(=O)NCCCCN3CCCC3)[C@H]3C=C[C@@H]2C32CC2)n1` (racemic) [Example 350, (5R*)—N^5-(4-Methyl-oxazol-2-yl)-(6R*)—N^6-(4-pyrrolidino-butyl)-(4S*,7R*)-[4,7-ethenylene-spiro[2.4]heptane]-5,6-dicarboxamide], the pEC50 on human ALX receptor was 5.24; on human FPRL2 it was 6.35.

Regarding `CC(=O)CCCCNC(=O)[C@H]1[C@H](C(=O)NCCCCN2CCCC2)[C@H]2C=C[C@@H]1C21CC1` (racemic) [Example 127, (5R*)—N^5-(5-oxo-hexyl)-(6R*)—N^6-(4-pyrrolidin-1-yl-butyl)-(4S*,7R*)-[4,7-ethenylene-spiro[2.4]heptane]-5,6-dicarboxamide], the pEC50 on human ALX receptor is 7.02; on human FPRL2, 5.56.

Regarding `CCCN(CC1CC1)C(=O)[C@H]1[C@H](C(=O)Nc2ccc(Br)cc2)[C@@H]2C=C[C@H]1C21CC1` (racemic) [Example 91, (5R*)—N^5-(4-Bromophenyl)-(6R*)—N^6-propyl-N^6-(cyclopropylmethyl)-(4S*,7R*)-[4,7-ethenylene-spiro[2.4]heptane]-5,6-dicarboxamide], the pEC50 on human ALX receptor is 6.70; at human FPRL2, 5.53.

In the case of `O=C(NCCCCN1CCCC1)[C@H]1[C@H](C(=O)Nc2ncc(Cl)s2)[C@@H]2C=C[C@H]1C21CC1` (racemic) [Example 129, (5R*)—N^5-(5-Chloro-thiazol-2-yl)-(6R*)—N^6-(4-pyrrolidin-1-yl-butyl)-(4S*,7R*)-[4,7-ethenylene-spiro[2.4]heptane]-5,6-dicarboxamide], the pEC50 at human ALX receptor is 6.92; on human FPRL2, 5.92.

As for `NC(=O)CCNC(=O)[C@H]1[C@H](C(=O)Nc2ncc(Br)s2)[C@@H]2CC[C@H]1C21CC1` [Example 239, (5R)—N^5-(5-Bromo-thiazol-2-yl)-(6R)—N^6-(3-amino-3-oxopropyl)-(4S,7R)-[4,7-ethylene-spiro[2.4]heptane]-5,6-dicarboxamide], the pEC50 on human ALX receptor is 7.82; at human FPRL2, less than 4.60.

Take `CCCC(=O)NC[C@H]1[C@H](C(=O)Nc2ccc(Br)cc2)[C@@H]2C=C[C@H]1C21CC1` (racemic) [Example 187, (5R*)—N^5-(4-Bromo-phenyl)-(6R*)-6-[(butanoylamino)-methyl]-(4S*,7R*)-[4,7-ethenylene-spiro[2.4]heptane]-5-carboxamide]: the values for the negative logarithm of the EC50 (pEC50) at human ALX receptor and on human FPRL2 were 6.30 and 5.37, respectively.

Regarding `O=C(NCCCCN1CCCC1)[C@H]1[C@H](C(=O)NCc2ccc(F)cc2Br)[C@@H]2C=C[C@H]1C21CC1` (racemic) [Example 353, (5R*)—N^5-(2-Bromo-4-fluorophenyl-methyl)-(6R*)—N^6-(4-pyrrolidino-butyl)-(4S*,7R*)-[4,7-ethenylene-spiro[2.4]heptane]-5,6-dicarboxamide], the pEC50 at human ALX receptor was 5.16; at human FPRL2, 6.59.

As to `COC(=O)CCNC(=O)[C@H]1[C@H](C(=O)Nc2ccc(Br)cc2)[C@@H]2C=C[C@H]1C21CC1` (racemic) [Example 60, (5R*)—N^5-(4-Bromophenyl)-(6R*)—N^6-(2-(methoxy-carbonyl)-ethyl)-(4S*,7R*)-[4,7-ethenylene-spiro[2.4]heptane]-5,6-dicarboxamide], the pEC50 is 7.66 at human ALX receptor and 5.83 on human FPRL2.

For `NC(=O)CCNC(=O)[C@H]1[C@H](C(=O)Nc2ccc(Br)nc2)[C@@H]2C=C[C@H]1C21CC1` [Example 242, (5R)—N^5-(2-Bromo-pyrid-5-yl)-(6R)—N^6-(3-amino-3-oxopropyl)-(4S,7R)-[4,7-ethenylene-spiro[2.4]heptane]-5,6-dicarboxamide], the pEC50 at human ALX receptor is 8.23; at human FPRL2, 5.21.

As to `NS(=O)(=O)c1ccc(CCNC(=O)[C@H]2[C@H](C(=O)Nc3ccc(Br)cc3)[C@@H]3C=C[C@H]2C32CC2)cc1` (racemic) [Example 61, (5R*)—N^5-(4-Bromophenyl)-(6R*)—N^6-(2-(4-aminosulfonyl-phenyl)-ethyl)-(4S*,7R*)-[4,7-ethenylene-spiro[2.4]heptane]-5,6-dicarboxamide], the pEC50 on human ALX receptor is 7.64; at human FPRL2 it was 5.64.

As for `CCOCCCNC(=O)[C@H]1[C@H](C(=O)NCc2ccc(Br)cc2)[C@@H]2C=C[C@H]1C21CC1` (racemic) [Example 263, (5R*)—N^5-(4-Bromophenyl-methyl)-(6R*)—N^6-(3-ethoxy-propyl)-(4S*,7R*)-[4,7-ethenylene-spiro[2.4]heptane]-5,6-dicarboxamide], the pEC50 was 6.05 at human ALX receptor and 5.35 at human FPRL2.

With `O=C(NCCCC(=O)N1CCCC1)[C@H]1[C@H](C(=O)Nc2ccc(Br)cc2)[C@@H]2C=C[C@H]1C21CC1` [Example 214, (5R)—N^5-(4-Bromophenyl)-(6R)—N^6-(4-pyrrolidino-4-oxobutyl)-(4S,7R)-[4,7-ethenylene-spiro[2.4]heptane]-5,6-dicarboxamide], the figures for the pEC50 at human ALX receptor and on human FPRL2 were 8.21 and 6.47, respectively.

In the case of `O=C(NCCCCN1CCCC1)[C@H]1[C@H](C(=O)Nc2ccc3ncoc3c2)[C@@H]2C=C[C@H]1C21CC1` (racemic) [Example 254, (5R*)—N^5-(Benzo[d]oxazol-6-yl)-(6R*)—N^6-(4-pyrrolidin-1-yl-butyl)-(4S*,7R*)-[4,7-ethenylene-spiro[2.4]heptane]-5,6-dicarboxamide], the pEC50 on human ALX receptor was 6.31; at human FPRL2 it was 7.17.

For the compound `NCc1cccc(CNC(=O)[C@H]2[C@H](C(=O)Nc3ccc(Br)cc3)[C@@H]3C=C[C@H]2C32CC2)c1` (racemic) [Example 7, (5R*)—N^5-(4-Bromophenyl)-(6R*)—N^6-((3-aminomethyl-phenyl)-methyl)-(4S*,7R*)-[4,7-ethenylene-spiro[2.4]heptane]-5,6-dicarboxamide], the pEC50 was 9.26 on human ALX receptor and 6.38 at human FPRL2.

For `O=C(NCCCCCN1CCCC1)[C@H]1[C@H](C(=O)Nc2ccc(Br)cc2)[C@@H]2C=C[C@H]1C21CC1` [Example 221, (5R)—N^5-(4-Bromophenyl)-(6R)—N^6-(5-pyrrolidino-pentyl)-(4S,7R)-[4,7-ethenylene-spiro[2.4]heptane]-5,6-dicarboxamide], the figures for the pEC50 at human ALX receptor and at human FPRL2 were 9.18 and 7.39, respectively.

Consider `NCCCCCNC(=O)C1C(C(=O)Nc2ncc(Br)s2)C2C=CC1C21CC1` [Example 322, (5R)—N^5-(5-Bromo-thiazol-2-yl)-(6R)—N^6-(5-amino-pentyl)-(4S,7R)-[4,7-ethenylene-spiro[2.4]heptane]-5,6-dicarboxamide], for which the pEC50 at human ALX receptor is 9.21; on human FPRL2, 6.42.
